What was measured:
[1] = system: Bifidobacterium breve YIT 12272 (BbY); test: Culture of BbY in whey culture medium with L-cystine or L-cysteine; assay type: cell-based; conditions: for concentration at which the viable cell count was maximum: whey simultaneous heating culture medium, 12 hours
Protocol: A skimmed milk powder was dissolved in RO water at 12% (w/v), and the 12% (w/v) skimmed milk was adjusted to a pH of 4.6 with 5 N HCl, followed by centrifugation at 3,000×g for 5 minutes. Subsequently, the supernatant was adjusted to a pH of 6.5 with 5 N NaOH and was centrifuged at 10,000×g for 15 to 30 minutes. The supernatant was dispensed in 10 mL aliquots in a rimmed medium-sized test tube while replacing the headspace with nitrogen gas and sealed with a butyl rubber stopper. Subsequently, the supernatant was sterilized by heat in an autoclave at 115° C. for 30 minutes to provide a whey culture medium separated before heating. In addition, as in the skimmed milk culture medium, simultaneous heating culture medium was prepared in anaerobic conditions by adding L-cystine or L-cysteine before heating and then performing heat sterilization. The addition concentration of L-cystine or L-cysteine was adjusted to 0.001, 0.003, 0.005, 0.01, 0.03, 0.05, or 0.1% (w/v) as the final concentration.
Inoculation and culture were performed as in Example 1 except that only when BbY was cultured in the skimmed milk culture medium, the culture time was 9 hours.
As in Example 2, whey separated before heating and simultaneous heating culture media with L-cysteine was prepared. In addition, a culture medium in which L-cysteine was added after heat sterilization and immediately before inoculation (individual heating culture medium) was also prepared. The addition concentration of L-cysteine was 0.03 (w/v) % as the final concentration.
A skimmed milk powder was dissolved in RO water at 12% (w/v), and the 12% (w/v) skimmed milk was sterilized by heat in an autoclave at 115° C. for 30 minutes in anaerobic conditions by nitrogen gas and was then adjusted to a pH of 4.6 with 5 N HCl, followed by centrifugation at 3,000×g for 5 minutes. Subsequently, the supernatant was adjusted to a pH of 6.5 with 5 N NaOH and was centrifuged at 10,000×g for 15 to 30 minutes. The supernatant was dispensed in 10 mL aliquots in a pre-sterilized rimmed medium-sized test tube while replacing the headspace with nitrogen gas and sealed with a butyl rubber stopper to provide a whey culture medium separated after heating. In addition, as in the skimmed milk culture media of Example 1, in anaerobic conditions, a culture medium in which L-cysteine was added before heating and then heat sterilization was performed (simultaneous heating culture medium) and a culture medium in which addition was performed after heat sterilization and before adjustment to pH 4.6 (individual heating culture medium) were also prepared.
Inoculation and culture were performed as in Example 1.
Based on the viable cell counts in (iii), each viable cell count ratio was calculated by dividing the viable cell count in the simultaneous heating culture medium by the viable cell count in the individual heating culture medium.

[2] = system: Lactobacillus acidophilus YIT 0198; test: Culture of YIT 0198 in skimmed milk culture medium with L-cystine or L-cysteine; assay type: cell-based; conditions: YIT 0198, skimmed milk culture medium, 0.05 (w/v) %, 37° C., 12 hours, FIG. 1
Protocol: Bifidobacterium breve YIT 12272 (hereinafter, referred to as BbY), Bifidobacterium bifidum YIT 10347 (hereinafter, referred to as BF-1), Lactobacillus casei YIT 9029 (hereinafter, referred to as YIT 9029), and Lactobacillus acidophilus YIT 0198 (hereinafter, referred to as YIT 0198) were used.
A skimmed milk powder (ABC, manufactured by MEGMILK SNOW BRAND Co., Ltd.) was dissolved in RO water at 12% (w/v), the solution was dispensed in 10 mL aliquots in a rimmed medium-sized test tube while replacing the headspace with nitrogen gas and sealed with a butyl rubber stopper. Subsequently, the solution was sterilized by heat in an autoclave (SX-500, manufactured by Tomy Seiko Co., Ltd.) at 115° C. for 30 minutes to provide a skimmed milk culture medium (additive-free culture medium). […]
The pH of a culture medium or a bacterial solution was measured using a desk-top pH meter (F52, manufactured by HORIBA, Ltd.). […]
Regardless of the bacterial strain, a bacterial solution was appropriately diluted with a 0.85% (w/v) sodium chloride aqueous solution (physiological saline solution). […] The grown colonies were counted as the viable cell count. […] Colonies were counted using a colony counter ProtoCOL (manufactured by Synoptics Ltd.).

[3] = whey separated after heating, L-cysteine, individual heating, culture time 9 h
[4] = whey separated after heating, L-cysteine, individual heating, culture time 12 h
[5] = whey separated after heating, L-cysteine, simultaneous heating, culture time 9 h
[6] = whey separated after heating, L-cysteine, simultaneous heating, culture time 12 h
[7] = whey separated before heating, L-cysteine 0.03 (w/v) %, individual heating, culture time 9 h
[8] = whey separated before heating, L-cysteine 0.03 (w/v) %, individual heating, culture time 12 h
[9] = whey separated before heating, L-cysteine 0.03 (w/v) %, simultaneous heating, culture time 9 h
[10] = whey separated before heating, L-cysteine 0.03 (w/v) %, simultaneous heating, culture time 12 h

Question: Which results are given for `Cl.N[C@@H](CS)C(=O)O` [L-cysteine, L-cysteine hydrochloride]?
Answer: Acidity [1, 3]: 3.43 ml/9 g; Viable cell count [1, 3]: 8.89 × 10^8 CFU/ml; pH [1, 3]: 5.14; Acidity [1, 4]: 4.78 ml/9 g; Viable cell count [1, 4]: 1.32 × 10^9 CFU/ml; pH [1, 4]: 4.81; Acidity [1, 5]: 4.23 ml/9 g; Viable cell count [1, 5]: 1.29 × 10^9 CFU/ml; pH [1, 5]: 4.85; Acidity [1, 6]: 7.28 ml/9 g; Viable cell count [1, 6]: 2.22 × 10^9 CFU/ml; pH [1, 6]: 4.32; Viable cell count ratio (simultaneous/individual) ([1]; whey separated after heating, culture time 9 h): 1.45; Viable cell count ratio (simultaneous/individual) ([1]; whey separated after heating, culture time 12 h): 1.68; Acidity [1, 7]: 2.15 ml/9 g; Viable cell count [1, 7]: 1.24 × 10^8 CFU/ml; pH [1, 7]: 4.97; Acidity [1, 8]: 2.55 ml/9 g; Viable cell count [1, 8]: 1.42 × 10^8 CFU/ml; pH [1, 8]: 4.82; Acidity [1, 9]: 2.15 ml/9 g; Viable cell count [1, 9]: 2.53 × 10^8 CFU/ml; pH [1, 9]: 5.01; Acidity [1, 10]: 2.29 ml/9 g; Viable cell count [1, 10]: 3.29 × 10^8 CFU/ml; pH [1, 10]: 4.85; Viable cell count ratio (simultaneous/individual) ([1]; whey separated before heating, culture time 9 h): 2.04; Viable cell count ratio (simultaneous/individual) ([1]; whey separated before heating, culture time 12 h): 2.31; concentration at which the viable cell count was maximum [1]: 0.01 % (w/v); growth promotion by addition [2]: not observed

Question: With `N[C@@H](CSSC[C@H](N)C(=O)O)C(=O)O` [L-cystine] as the compound, how does the “concentration at which the viable cell count was maximum” value [1] read?
Answer: 0.01 % (w/v)

Question: And the “growth promotion by addition” value [2]?
Answer: not observed
